Legend:
[1] = molecular target: human α5β3γ2 receptors (α5-GABAA receptor) (Homo sapiens (Human), UniProt P18507+P31644); assay: 3H-flunitrazepam competition binding, human α5β3γ2 GABAA receptor; conditions: HEK293 cell membranes, 1 nM 3H-flunitrazepam; read-out: α5-GABAAR Ki
Procedure, shortened: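 HEK293 membranes stably expressing each human receptor subtype ([…]) competed against 1 nM 3H-flunitrazepam in Tris buffer, 1 h at room temperature; flumazenil defined the low-signal control. Eight-point 4-fold test-compound dilutions; GF/C filtration and scintillation counting gave IC50 by curve fitting, converted to Ki.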

[2] = molecular target: α5-GABAA receptor (α5, β3, γ2 subunits) (Homo sapiens (Human), UniProt P18507+P31644); assay: Whole cell patch clamp, inverse agonist efficacy in HEK293 cells expressing α5-GABAA receptor; assay type: cell-based; conditions: HEK293, drug 100 nM, GABA 0.05 μM, −60 mV; read-out: Compound inverse agonist efficacy %
Description: The inventors used electrophysiological methods to determine the inverse agonist efficacy of the drugs to be tested on the α5-GABAA receptor. The detailed methods are as follows:
Different subunits of the GABAA receptor were co-expressed in the HEK293 cell line to construct a fully functional GABAA receptor. The α, β, and γ subunits are essential to form a complete functional GABAA receptor. In this example, the present disclosure had established the following cell model: α5 subunit (see GenBank Accession No.: NM_000810.3 for protein sequences), β3 subunit (see GenBank Accession No.: NM_000814.5 for protein sequences), and γ2 subunit (see GenBank Accession No.: NM_000816.3 for protein sequences) were co-expressed in the HEK293 cell line, followed by screening the monoclonal stably transfected cell line. This cell line expressed a fully functional α5-GABAA receptor.
The monoclonal stably transfected HEK293 cell line expressing α5-GABAA receptor were cultured in 10 cm culture dishes and passaged when the cells grew to 80% to 90% confluent. During passaging, the culture medium was aspirated first, then 3 mL of DPBS phosphate buffer salt (Gibco™) was added to the culture dishes, and the culture dishes were shaken slightly, and DPBS was aspirated. 1 mL of trypsin (TrypLE Express, Gibco™) was added thereto, and the cells were digested at 37° C. for 1-2 minutes. Then 3 mL of complete medium (DMEM+10% FBS (Gibco™)) was added and the cells at the bottom of the culture dishes were dispersed. The cell suspension was transferred to a 15 mL centrifugal tube (Corning) and then centrifuged at 200 g for 3 minutes. The supernatant was discarded, 4 mL of complete medium was added, and the cells were gently blown and resuspended for use. If cell passaging was performed, the cell suspension was diluted at a ratio of 1:5 or 1:10. If cells for electrophysiological detection were prepared, the cell suspension was diluted in a ratio of 1:12, then added into a 24-well dish (Corning™) in which glass slides were placed and pretreated with Poly-D-Lysine, and the experiment was carried out after the cells adhered to the wall. The cells used for electrophysiology was cultured no more than 48 hours.
Drug concentration setting: The final drug concentration used in drug screening was 100 nM, and the GABA concentration was 0.05 μM. The whole cell patch clamp technique was used in electrophysiological assays, which could refer to the literature (I. Lecker, Y. Yin, D. S. Wang and B. A. Orser, British Journal of Anaesthesia, 2013, 110 (Si), i73-i81). The compositions of the extracellular solution for electrophysiology assay were as follows: 150 mM NaCl, 5 mM KCl, 2.5 mM CaCl2, 1 mM MgCl2, 10 mM HEPES, and 10 mM glucose (pH 7.4); the formulation of the electrode internal fluid for electrophysiology use was as follows: 140 mM CsCl, 11 mM EGTA, 10 mM HEPES, 2 mM CaCl2, 1 mM MgCl2, 4 mM MgATP, and 2 mM TEA (pH 7.3). The signal acquisition used an EPC-10 amplifier and the PatchMaster software (HEKA) or Axon700B amplifier and Clampex software (AXON). The recording electrode was pulled from borosilicate glass, and the electrode resistance was 4 to 6 MQ. The ALA-VC-8PG™ system was used for drug application. Single cell that grew independently was selected for recording. During recording, the cell membrane potential was clamped at −60 mV. During experiment, an extracellular solution was applied outside the cells for about 20 seconds. When the baseline reached to a stable state, the extracellular solution was switched to the GABA solution to induce an inward current. After about 20 to 40 seconds until the current was stable, the solution was switched to a corresponding drug solution to detect the effect of the drug. At last, the solution was switched to the extracellular solution, and the experiment was terminated when the baseline returned to the level before drug application. […]

| Molecule | Ki [1] [nM] | inhibition at 0.1 µM [2] [%] |
| --- | --- | --- |
| Cc1nnn(-c2ccc(C(F)F)cc2)c1COc1ccc(N2CC(C(=O)N3CCOCC3)C2)cn1 [Example 160, (1-(6-((1-(4-(Difluoromethyl)phenyl)-4-methyl-1H-1,2,3-triazol-5-yl)methoxy)pyridin-3-yl)azetidin-3-yl)(morpholino)methanone] | 6.21 | 42.7 |
| Cc1nnn(-c2ccc(C(F)F)cc2)c1COc1ccc(N2CCN(CC(F)(F)F)C(=O)C2)nn1 [Example 62, 4-(6-((1-(4-(Difluoromethyl)phenyl)-4-methyl-1H-1,2,3-triazol-5-yl)methoxy)pyridazin-3-yl)-1-(2,2,2-trifluoroethyl)piperazin-2-one] | 1.18 | 44.6 |
| Cc1nnn(-c2ccc(C(F)F)cc2)c1COc1ccc(C2CCNC(=O)C2)cn1 (stereo not shown) [Example 170, 4-(6-((1-(4-(Difluoromethyl)phenyl)-4-methyl-1H-1,2,3-triazol-5-yl)methoxy)pyridin-3-yl)piperidin-2-one] | 2.3 |  |
| 4-(6-((1-(4-(Difluoromethyl)phenyl)-4-methyl-1H-1,2,3-triazol-5-yl)methoxy)pyridin-3-yl)-1-methyl-1,4-diazepan-2-one [Example 17] | 4.32 |  |
| Cc1nnn(-c2ccc(C(F)F)cc2)c1COc1ccc(N2CC(C(C)C)N3CCNC[C@H]3C2=O)nn1 (stereo partly shown) [Example 215] | 36.1 |  |
| CCNC(=O)[C@H]1CCCN1c1ccc(OCc2c(C)nnn2-c2ccc(C(F)F)cc2)nn1 [Example 41, (R)-1-(6-((1-(4-(Difluoromethyl)phenyl)-4-methyl-1H-1,2,3-triazol-5-yl)methoxy)pyridazin-3-yl)-N-ethylpyrrolidine-2-carboxamide] | 42.6 |  |
| COc1cnccc1NC(=O)C1CN(c2ccc(OCc3c(C)nnn3-c3ccc(C(F)F)cc3)nn2)C1 [Example 149, 1-(6-((1-(4-(Difluoromethyl)phenyl)-4-methyl-1H-1,2,3-triazol-5-yl)methoxy)pyridazin-3-yl)-N-(3-methoxypyridin-4-yl)azetidine-3-carboxamide] | 2.04 |  |
| Cc1nnn(-c2ccc(C(F)F)cc2)c1COc1ccc(N2CCN3CC(c4cnn(C)c4)NC(=O)[C@@H]3C2)nn1 (single isomer, unassigned) [Example 211] | 2.02 |  |
| Cc1nnc(C2CN(c3ccc(OCc4c(C)nnn4-c4ccc(C(F)F)cc4)nn3)C2)o1 [Example 53, 2-(1-(6-((1-(4-(Difluoromethyl)phenyl)-4-methyl-1H-1,2,3-triazol-5-yl)methoxy)pyridazin-3-yl)azetidin-3-yl)-5-methyl-1,3,4-oxadiazole] | 2.97 |  |
| COCCNC(=O)C1CN(c2ccc(OCc3c(C)nnn3-c3ccc(C(F)F)cc3)nn2)C1 [Example 49, 1-(6-((1-(4-(Difluoromethyl)phenyl)-4-methyl-1H-1,2,3-triazol-5-yl)methoxy)pyridazin-3-yl)-N-(2-methoxyethyl)azetidine-3-carboxamide] | 6.5 |  |

The remaining lines, values ahead:

| Ki [1] [nM] | inhibition at 0.1 µM [2] [%] | Molecule |
| --- | --- | --- |
| 22.5 | 53.9 | Cn1nnc(-c2ccc(F)cc2)c1COc1ccc(N2CCNC(=O)C2)nn1 [Example 128, 4-(6-((4-(4-Fluorophenyl)-1-methyl-1H-1,2,3-triazol-5-yl)methoxy)pyridazin-3-yl)piperazin-2-one] |
| 2.4 | 48.4 | Cc1nnn(-c2ccc(C(F)F)cc2)c1COc1ccc(N2CC[C@H]3CCNC(=O)[C@@H]3C2)nn1 (relative stereo) [Example 124, trans-7-(6-((1-(4-(Difluoromethyl)phenyl)-4-methyl-1H-1,2,3-triazol-5-yl)methoxy)pyridazin-3-yl)octahydro-2,7-naphthyridin-1(2H)-one] |
| 1.37 | 46.4 | COCCN1CCN(c2ccc(OCc3c(C)nnn3-c3ccc(C(F)F)cc3)nn2)CC1=O [Example 139, 4-(6-((1-(4-(Difluoromethyl)phenyl)-4-methyl-1H-1,2,3-triazol-5-yl)methoxy)pyridazin-3-yl)-1-(2-methoxyethyl)piperazin-2-one] |
|  | 50.1 | Cc1nnn(-c2ccc(C(F)F)cc2)c1COc1ccc(N2CCN(CCN)C(=O)C2)nn1 [Example 67, 1-(2-Aminoethyl)-4-(6-((1-(4-(difluoromethyl)phenyl)-4-methyl-1H-1,2,3-triazol-5-yl)methoxy)pyridazin-3-yl)piperazin-2-one] |
| 1.39 |  | Cc1nnn(-c2ccc(C(F)F)cc2)c1COc1ccc(N2CC(=O)N3CCOC[C@@H]3C2)nn1 [Example 174, (S)-8-(6-((1-(4-(Difluoromethyl)phenyl)-4-methyl-1H-1,2,3-triazol-5-yl)methoxy)pyridazin-3-yl)hexahydropyrazino[2,1-c][1,4]oxazin-6(1H)-one] |
| 1.96 |  | O=C1CN(c2ccc(OCc3c(Cl)nnn3-c3ccc(Cl)cc3)nn2)CCN1 [Example 190, 4-(6-((4-Chloro-1-(4-chlorophenyl)-1H-1,2,3-triazol-5-yl)methoxy)pyridazin-3-yl)piperazin-2-one] |
| 0.8 |  | Cc1nnn(-c2ccc(C(F)F)cc2)c1COc1ccc(N2CCN3c4ncccc4NC(=O)[C@@H]3C2)nn1 [Example 194, (S)-8-(6-((1-(4-(Difluoromethyl)phenyl)-4-methyl-1H-1,2,3-triazol-5-yl)methoxy)pyridazin-3-yl)-7,8,9,10-tetrahydro-5H-pyrazino[1,2-a]pyrido[3,2-e]pyrazin-6(6aH)-one] |
| 27.2 |  | Cc1nnn(-c2ccc(C(F)F)cc2)c1COc1ccc(N2CCN3CCCNC(=O)[C@@H]3C2)nn1 [Example 120, (S)-2-(6-((1-(4-(Difluoromethyl)phenyl)-4-methyl-1H-1,2,3-triazol-5-yl)methoxy)pyridazin-3-yl)octahydropyrazino[1,2-a][1,4]diaza-10(2H)-one] |
| 2.94 |  | Cc1nnn(-c2ccc(C(F)F)cc2)c1COc1ccc(N2CCN[C@H](C(N)=O)C2)nn1 [Example 32, (S)-4-(6-((1-(4-(Difluoromethyl)phenyl)-4-methyl-1H-1,2,3-triazol-5-yl)methoxy)pyridazin-3-yl)piperazine-2-amide] |
| 1.05 |  | COc1cc(OCc2c(C)nnn2-c2ccc(C(F)F)cc2)nnc1N1CCNC(=O)C1 [Example 135, 4-(6-((1-(4-(Difluoromethyl)phenyl)-4-methyl-1H-1,2,3-triazol-5-yl)methoxy)-4-methoxypyridazin-3-yl)piperazin-2-one] |
| 54.1 |  | Cc1nnn(-c2ccc(C(F)F)cc2)c1COc1ccnc(N2CCNC(=O)C2)n1 [Example 213, 4-(4-((1-(4-(Difluoromethyl)phenyl)-4-methyl-1H-1,2,3-triazol-5-yl)methoxy)pyrimidin-2-yl)piperazin-2-one] |
| 11.1 |  | O=C1NCCN2CCN(c3ccc(OCc4c(CC5CC5)nnn4-c4ccc(C(F)F)cc4)nn3)C[C@@H]12 [Example 187, (S)-8-(6-((4-(Cyclopropylmethyl)-1-(4-(difluoromethyl)phenyl)-1H-1,2,3-triazol-5-yl)methoxy)pyridazin-3-yl)hexahydro-2H-pyrazino[1,2-a]pyrazin-1(6H)-one] |
| 1.46 |  | Cc1nnn(-c2ccc(C(F)F)cc2)c1COc1ccc(N2CCN3C(=O)COC[C@@H]3C2)nn1 [Example 9, (S)-8-(6-((1-(4-(Difluoromethyl)phenyl)-4-methyl-1H-1,2,3-triazol-5-yl)methoxy)pyridazin-3-yl)hexahydropyrazino[2,1-c][1,4]oxazin-4(3H)-one] |
